# Reference: US12178940B2, “Controlled hydrogel delivery of focal adhesion kinase inhibitor for decreased scar formation” (THE BOARD OF TRUSTEES OF THE LELAND STANFORD JUNIOR …, priority 2018, dated 2024)
# Counter-ions that a name gives are not always drawn. Like-named read-outs stand apart in the source and are kept apart here.
# Experiments:
# FAK = FAK (Homo sapiens, UniProt Q05397); details: class symbols of Table 1, legend not given; cited from earlier work
# advanced solid tumors = details: cited from earlier work
# Other Targets = details: Table 1; cited from earlier work
# murine dorsal incisions = assay type: in vivo; details: daily local subcutaneous injection
# Protocol: Hypertrophic scar model and local subcutaneous injection of FAKI: Incisional wounding and development of hypertrophic scars on the dorsum of mice were performed by previously described methods (Aarabi et al., 2007; Wong et al., 2011a). Animals were randomly assigned to receive 15, 75, or 150 μM concentrations of FAKI dissolved in 10% DMSO via daily local subcutaneous injection adjacent to the wound site. […] Specimens were harvested at Day 14 post-injury for histology and scar areas were quantified (FIG. 6).
# incisional HTS model = details: intradermal injection; cited from earlier work
# Chain of FAK (Q05397 whole entry, species assumed): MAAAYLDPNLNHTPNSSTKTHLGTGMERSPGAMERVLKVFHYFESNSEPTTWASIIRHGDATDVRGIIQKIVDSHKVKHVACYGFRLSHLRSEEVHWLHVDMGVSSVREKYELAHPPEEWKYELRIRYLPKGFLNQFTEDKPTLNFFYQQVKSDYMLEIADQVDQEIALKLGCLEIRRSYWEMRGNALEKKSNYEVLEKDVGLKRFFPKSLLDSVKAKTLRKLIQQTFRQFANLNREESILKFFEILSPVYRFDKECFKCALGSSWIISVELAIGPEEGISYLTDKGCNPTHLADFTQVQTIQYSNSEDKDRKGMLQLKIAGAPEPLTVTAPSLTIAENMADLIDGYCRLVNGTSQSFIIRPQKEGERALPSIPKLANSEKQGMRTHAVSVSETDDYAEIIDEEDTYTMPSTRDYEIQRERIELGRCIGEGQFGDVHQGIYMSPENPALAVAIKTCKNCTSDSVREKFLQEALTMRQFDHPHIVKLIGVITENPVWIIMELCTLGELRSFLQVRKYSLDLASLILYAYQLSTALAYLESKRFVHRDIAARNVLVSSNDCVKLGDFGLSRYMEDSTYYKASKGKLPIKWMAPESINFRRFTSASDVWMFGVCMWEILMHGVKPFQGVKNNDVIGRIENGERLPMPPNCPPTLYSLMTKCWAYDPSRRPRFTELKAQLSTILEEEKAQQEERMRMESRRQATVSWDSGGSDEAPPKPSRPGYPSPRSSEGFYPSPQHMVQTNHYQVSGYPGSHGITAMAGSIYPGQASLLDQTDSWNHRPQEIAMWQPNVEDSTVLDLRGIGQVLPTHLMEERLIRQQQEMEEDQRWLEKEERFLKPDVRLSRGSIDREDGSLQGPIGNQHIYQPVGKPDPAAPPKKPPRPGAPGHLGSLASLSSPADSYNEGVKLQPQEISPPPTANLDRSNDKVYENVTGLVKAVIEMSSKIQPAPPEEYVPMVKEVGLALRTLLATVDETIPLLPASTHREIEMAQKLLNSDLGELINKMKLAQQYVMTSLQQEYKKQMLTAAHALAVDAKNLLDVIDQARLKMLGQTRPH
smiles,measurement,setting,value
CNC(=O)c1ccc(Nc2ncc(C(F)(F)F)c(NCc3nccnc3N(C)S(C)(=O)=O)n2)cc1 [Defactinib],FAK,FAK,✓
same,efficacy in treatment of advanced solid tumors,advanced solid tumors; clinical trials,proven effective
CN(c1ncccc1CNc1nc(Nc2ccc3c(c2)CC(=O)N3)ncc1C(F)(F)F)S(C)(=O)=O [PF-562271 HCl],Other Targets,Other Targets,"CDK2/ CyclinE,CDK3/ CyclinE,CKD1/ CyclinB"
CN(c1ncccc1CNc1nc(Nc2ccc3c(c2)CC(=O)N3)ncc1C(F)(F)F)S(C)(=O)=O [PF-562271],efficacy in treatment of advanced solid tumors,advanced solid tumors; clinical trials,proven effective
same,pharmacokinetics in clinical trials,advanced solid tumors; clinical trials,desired pharmacokinetics
same,reason for discontinuation as an anti-cancer agent,advanced solid tumors; dosed orally,potential drug-drug interactions
same,major systemic toxicities,"advanced solid tumors; oral administration, clinical trials",nausea/vomiting and gastrointestinal-related adverse effects
same,scar lesions (Masson's Trichrome),murine dorsal incisions; 15 μM FAKI in 10% DMSO,reduced scar lesions
same,scar lesions (Masson's Trichrome),murine dorsal incisions; 75 μM FAKI in 10% DMSO,reduced scar lesions
CS(=O)(=O)c1cccc(CNc2nc(Nc3ccc4c(c3)CCC(=O)N4)ncc2C(F)(F)F)c1 [PF-573228],inflammatory chemokine pathways,incisional HTS model,suppressed inflammatory chemokine pathways
same,scarring in vivo,incisional HTS model,attenuated scarring
CC(=O)NCC(=O)N1[C@@H]2CC[C@H]1c1ccc(Nc3ncc(C(F)(F)F)c(NC4CCC4)n3)cc12 [PF-03814735],Other Targets,Other Targets,"Aurora A, Aurora B, FLT1"
CC(C)=CCC/C(C)=C/CC/C(C)=C/CC/C(C)=C/CC/C(C)=C/CC/C(C)=C/CC/C(C)=C/CC/C(C)=C/CC/C(C)=C/CO [Solanesol],FAK,FAK,✓
CNC(=O)c1ccccc1Nc1nc(Nc2ccc(N3CCOCC3)cc2OC)ncc1Cl [TAE226],Other Targets,Other Targets,"Insulin Receptor, IGF-1R, c-Met"
